How the values were obtained:
[1] = mn = molality of the nth substance listed, in mol/kg; conditions: 298.15 K, 101 kPa, Liquid; for viscosity: Capillary tube (Ostwald / Ubbelohde) method; for mass density: Vibrating tube method
[2] = cn = amount concentration of the nth substance listed, in mol/dm3; conditions: 298.15 K, 101 kPa, Liquid

C[C@H](N)C(=O)N[C@@H](CCC(N)=O)C(=O)O [L-alanyl-L-glutamine] + O
[1]
Conditions | mass density [kg/m3] | viscosity [mPa·s]
m1 = 0.0401 | 999.957 | –
m1 = 0.05 | – | 0.918
m1 = 0.08086 | 1002.88 | –
m1 = 0.1 | – | 0.948
m1 = 0.1012 | 1004.32 | –
m1 = 0.148 | 1007.6 | –
m1 = 0.15 | – | 0.978
m1 = 0.2 | – | 1.008
m1 = 0.2002 | 1011.17 | –
m1 = 0.2448 | 1014.22 | –
m1 = 0.2993 | 1017.77 | –

CCCC(=O)[O-].[Na+] [sodium butyrate] + O
[2]
Conditions | molar conductivity [S·m2/mol]
c1 = 0.0003234 | 0.00796
c1 = 0.001116 | 0.00795
c1 = 0.001273 | 0.007936
c1 = 0.001488 | 0.007915
c1 = 0.00188 | 0.00788
c1 = 0.00243 | 0.007842
c1 = 0.002454 | 0.00787
c1 = 0.003167 | 0.00766
c1 = 0.006298 | 0.007526
c1 = 0.008849 | 0.007443
c1 = 0.01124 | 0.00737
c1 = 0.01353 | 0.007315
c1 = 0.0155 | 0.00727
c1 = 0.01721 | 0.007239
c1 = 0.01916 | 0.007203
c1 = 0.02091 | 0.00717
c1 = 0.02284 | 0.007137
c1 = 0.02481 | 0.0071
c1 = 0.02647 | 0.00707

CC(=O)[O-].[Na+] [sodium ethanoate] + O
[2]
Conditions | molar conductivity [S·m2/mol]
c1 = 0.0002726 | 0.0088
c1 = 0.0004823 | 0.008807
c1 = 0.0007722 | 0.008806
c1 = 0.0009672 | 0.00879
c1 = 0.001191 | 0.00877
c1 = 0.001382 | 0.00872
c1 = 0.001567 | 0.008739
c1 = 0.001787 | 0.00872
c1 = 0.002055 | 0.008701
c1 = 0.002254 | 0.00869
c1 = 0.002454 | 0.00867
c1 = 0.003305 | 0.00849
c1 = 0.00463 | 0.00842
c1 = 0.006134 | 0.008351
c1 = 0.007784 | 0.00829
c1 = 0.008716 | 0.00826
c1 = 0.01014 | 0.008207
c1 = 0.01138 | 0.00817
c1 = 0.01268 | 0.008135
c1 = 0.01404 | 0.008103
c1 = 0.01528 | 0.00808
c1 = 0.01648 | 0.00806
c1 = 0.01789 | 0.00802
c1 = 0.01915 | 0.008
c1 = 0.02025 | 0.00797
c1 = 0.02164 | 0.007945
c1 = 0.02337 | 0.007911
c1 = 0.02523 | 0.00787
c1 = 0.02696 | 0.007849

NCC(=O)N[C@@H](CCC(N)=O)C(=O)O [glycyl-l-glutamine] + O
[1]
Conditions | mass density [kg/m3] | viscosity [mPa·s]
m1 = 0.03879 | 1000.01 | –
m1 = 0.05 | – | 0.913
m1 = 0.06116 | 1001.7 | –
m1 = 0.08141 | 1003.22 | –
m1 = 0.1 | – | 0.936
m1 = 0.1008 | 1004.66 | –
m1 = 0.1497 | 1008.28 | –
m1 = 0.15 | – | 0.961
m1 = 0.1987 | 1011.85 | –
m1 = 0.2 | – | 0.985
m1 = 0.2522 | 1015.68 | –

— the NIST ThermoML archive (doi:10.1016/j.jct.2009.06.010)
